Data taken from US11027022B2, “Conjugates and conjugating reagents” (priority 2016, dated 2021).

Tested on: Karpas-299 cells (T-anaplastic large cell lymphoma, ALCL)
Experiment: Karpas-299 mouse xenograft study
Type: in vivo, CB17-SCID mice
Details: single i.v. injection, 1 mg/kg, groups of eight mice
Protocol: Healthy female CB17-SCID mice (CBySmn.CB17-Prkdcscida, Charles River Laboratories) with an average body weight of 17.5 g were used for cell inoculation (Day 0). 24 to 72 h prior to tumour cell injection, the mice were […] (1.44 Gy, ^60Co). The animals were maintained in SPF health status according to the FELASA guidelines in housing rooms under controlled environmental conditions.
Tumours were induced by subcutaneous injection of 10^7 Karpas-299 cells (T-anaplastic large cell lymphoma, ALCL) in 200 μL of RPMI 1640 into the right flank. Tumours were measured twice a week with callipers, and the volume was estimated using the formula: […]
Fourteen days after tumour implantation (Day 14), the animals were randomised into groups of eight mice using Vivo Manager® software (233 mm^3 mean tumour volume) and treatment was initiated. The animals from the vehicle group received a single intravenous (i.v.) injection of PBS. The treated groups were dosed with a single i.v. injection of ADC at either 0.5 mg/kg or 1 mg/kg.
Treatment tolerability was assessed by bi-weekly body weight measurement and daily observation for clinical signs of treatment-related side effects. Mice were euthanized when a humane endpoint was reached (e.g. 1,600 mm^3 tumour volume) or after a maximum of 6 weeks post-dosing.

With “Adcetris®: commercially-available Adcetris® conjugate, comparative to the brentuximab-drug conjugates [reference compound]” the “complete responses (total reduction of tumour volume to zero)” value was 2 animals and the “mean tumour volume (result in words)” value was “increase in mean tumour volume”.
